Source: US20220330529A1, “METHODS FOR GENERATING ANIMAL MODELS FOR NONALCOHOLIC FATTY LIVER DISEASE” (INNOLAND BIOSCIENCES (ZHEJIANG) CO., LTD., priority 2019, published 2022)

Key:
MS-NASH mice [1] = test: High dose CCl4 (0.2 mL/kg) twice weekly for 3 weeks in MS-NASH mice on WDF; format: in vivo, mouse
From the text: (§1) Male MS-NASH (formally FATZO) mice were developed by Crown Bioscience as the new generation of mouse model with obese, metabolic disorder, diabetes and NAFLD/NASH that is more translatable to human diseases. The animals for this study were bred housed individually in IVC cages (Taicang, China) or open ventilated cages (Indianapolis, Ind.), and fed control diet (CD, Purina 5008 chow, LabDiet, St. Louis, Mo.) with distilled water ad libitum for the first 8 weeks after birth, then, stratified into different experimental groups based on body weight, serum ALT and AST. Room temperature was monitored and maintained at 22-26° C. with a 12-hour light cycle (06:00-18:00). C57B1/6J mice (The Jackson Laboratory, Ellsworth, Maine) were used as control strain and housed under the same conditions. All mice were maintained and treated in accordance with the guidelines of Association for Assessment and Accreditation of Laboratory Animal Care (AAALAC), and experimental protocols approved by the Institutional Animal Care and Use Committee (IACUC).
(§2) In all the experiments, body weights were recorded every 4 weeks. At the end of the experiments, all mice were euthanized by CO2 inhalation and confirmed with cervical dislocation approximately 24 hours after the last CCl4 administration.
(§3) Blood samples: Blood samples during the course of the experiment were collected from the tail or at the end of the experiment from cardiac puncture, from which, serum prepared for measuring AST and ALT by a clinical analyzer (Beckman-Coulter AU480; Brea, Calif.). In the low dose CCl4 repeated treatment group, in-life blood samples were taken—24 hours, and terminal blood samples taken, —24 hours after CCl4 doing, respectively. A separate experiment was performed to observe the acute time course at 24, 48 and 72 hours in response to a single dose of CCl4 at 0.2 mL/kg in MS-NASH mice on CD.
(§4) Tissue processing: The liver tissues were fixed in 10% neutral buffered formalin (NBF) at 4° C. for 24 hours followed by baths of standard concentrations of alcohol then xylene to prepare the tissues for paraffin embedding. After being embedded in paraffin and cooled, five-micron sections were cut and stained for routine H&E and Picric Sirius Red.
(§5) Semi-quantitative scoring by a pathologist: The digital images were evaluated by a well-trained research pathologist blind of different study groups with the standard NASH criteria for semi-quantitative scoring commonly used in preclinical animal models and in patients. Hepatosteatosis, lobular inflammation, and hepatocyte balloon degeneration were scored individually from the H&E staining and then summarized as a standard NAFLD Activity Score (NAS). Fibrosis score was assessed systemically with pattern recognition from PSR staining. Three representative areas per liver were examined and the scores of each parameter from individual animal were averaged.
Computerized quantitative analysis: Computer software with […] (AI) machine learning algorithm for histology analysis from Halo (Indica Labs, Albuquerque, N. Mex.) or ImageDx (Reveal Biosciences, San Diego, Calif.) were used to analyze digitally scanned images of H&E and PSR staining for quantitative analysis of steatosis, ballooning, inflammation or fibrosis in a set of the same slides evaluated by the pathologist. The analysis process included automated tissue identification, followed by segmentation of regions of interest for quantification of the following metrics: 1) Steatosis percentage: the area of total lipid accumulation subcategorized micro- or macro-vesicular within the entire section area; 2) Ballooning hepatocyte density: the density of ballooning hepatocytes within the entire section area; 3) Inflammatory cell density: the total number of inflammatory cells within the entire section area. All 3 parameters above were analyzed in the H&E stained section. 4)Fibrosis percentage: the total fibrosis area within the entire section area in the PSR stained section. […]

MS-NASH mice [2] = test: Low dose CCl4 (0.08 mL/kg) twice weekly for 8 weeks in MS-NASH mice on WDF; format: in vivo, mouse
From the text: as §1, §2, §3
Liver contents: The right lobe of the liver (— 200 mg/animal) was collected and snap frozen in liquid nitrogen, placed in Lysing Matrix D Tubes with distilled water at 20% concentration (MP Biomedicals, Santa Anna, CA), homogenized in a Fastprep-FP120 cell disrupter (Thermo Fisher Savant) in cold condition for 30 seconds. The liver contents of triglyceride and cholesterol were analyzed by a clinical analyzer (Beckman-Coulter AU480) within 30 min of sample preparation.
as §4, §5
Computerized quantitative analysis: Computer software with […] (AI) machine learning algorithm for histology analysis from Halo (Indica Labs, Albuquerque, N. Mex.) or ImageDx (Reveal Biosciences, San Diego, Calif.) were used to analyze digitally scanned images of H&E and PSR staining for quantitative analysis of steatosis, ballooning, inflammation or fibrosis in a set of the same slides evaluated by the pathologist. […]

MS-NASH mice [3] = test: Survival rate in MS-NASH mice on WDF under CCl4; format: in vivo, mouse
Description: (§6) All values are reported as Mean±SEM, unless noted otherwise. Model characterization were compared in MS-NASH mice on CD or WDF with or without CCl4; and effects of OCA were compared to vehicle with One-Way ANOVA for multiple groups or Holm-Sidak t-test for 2 groups. Survival curves of total MS-NASH mice and C57B1/6 mice were compared using Log-rank test for trend. Parametric correlation tests were conducted between pathologist scores and ImageDx quantitative analysis using Pearson correlation coefficient r. Statistical differences were denoted as p<0.05 or p<0.005. Prism software (GraphPad, version 8.3) was used for the statistical analysis and graphing.
(§7) This example illustrates survival rate in MS-NASH and C57B1/6 mice on WDF and treated high and low dose of CCL4.

C57B1/6 mice [4] = test: Survival rate in C57B1/6 mice on WDF under CCl4; format: in vivo, mouse; conditions: low dose CCl4; C57B1/6 compared to MS-NASH mice; trend not statistically significant
Description: as §6, §7

MS-NASH mice [5] = test: Low dose CCl4 (0.08 mL/kg) twice weekly for 8 weeks in MS-NASH mice on WDF; format: in vivo, mouse; conditions: week 12 and 14, 3 days after CCl4 dosing, vs mice on WDF only
mice model = conditions: high chemical dosage (0.8-1.0 ml/kg) required to generate liver fibrosis phenotype; cited from earlier work
MS-NASH mice [6] = test: Therapeutic effects of OCA in WDF fed MS-NASH mice treated low dose CCl4; format: in vivo, mouse; conditions: OCA 30 mg/kg orally once daily 8 weeks vs vehicle
From the text: as §1
(§8) In all the experiments, body weights were recorded every 4 weeks. […]
(§9) All values are reported as Mean±SEM, unless noted otherwise. […] Parametric correlation tests were conducted between pathologist scores and ImageDx quantitative analysis using Pearson correlation coefficient r. […]

C57B1/6 mice [7] = test: Therapeutic effects of OCA in WDF fed C57B1/6 mice treated low dose CCl4; format: in vivo, mouse; conditions: OCA 30 mg/kg orally once daily 8 weeks vs vehicle
From the text: as §1, §8, §9

[8] = CCl4 0.2 mL/kg IP twice weekly 3 weeks, vs CD or WDF without CCl4
[9] = CCl4 0.2 mL/kg twice weekly 3 weeks, MS-NASH mice on WDF
[10] = CCl4 0.2 mL/kg twice weekly 3 weeks, measured 24 hours after the last dose
[11] = CCl4 0.08 mL/kg twice weekly 8 weeks, WDF vs WDF+CCl4
[12] = CCl4 0.08 mL/kg twice weekly 8 weeks, end of study
[13] = CCl4 0.08 mL/kg twice weekly 8 weeks, with vs without CCl4
[14] = CCl4 0.08 mL/kg, 24 hours after the last dose at end of experiment, compared to high dose CCl4
[15] = WDF + CCl4 0.08 mL/kg twice weekly

With `ClC(Cl)(Cl)Cl` [CCl4, carbon tetrachloride] the caloric intake (MS-NASH mice [1]; [8]) was “significantly reduced”, the food intake (MS-NASH mice [1]; [8]) was “significantly reduced” and the body weight (MS-NASH mice [1]; CCl4 0.2 mL/kg IP twice weekly 3 weeks, vs MS-NASH mice on CD or WDF without CCl4) was “significantly reduced”. For the same molecule, the “fibrosis area by computer analysis software (Halo) from PSR images” value (MS-NASH mice [1]; [9]) was roughly 8%, the “histopathology images (H&E, PSR)” value (MS-NASH mice [1]; [9]) was “aggravated liver injury and centrilobular fibrosis” and the “pathology scores by the pathologist (steatosis, inflammation, ballooning, overall NAS, fibrosis score)” value (MS-NASH mice [1]; [9]) was “failed to detect such enhanced pathology”. The “serum ALT” value (MS-NASH mice [1]; [10]) was “dramatically elevated”, the “serum AST” value (MS-NASH mice [1]; [10]) was “dramatically elevated” and the “liver fibrosis score evaluated by the pathologist” value (MS-NASH mice [2]; [11]) was “significantly aggravated”. The “other aspects of liver pathology (NAS scores by the pathologist)” value (MS-NASH mice [2]; [11]) was “little influence”, the “liver contents of cholesterol” value (MS-NASH mice [2]; [12]) was “significantly reduced” and the liver weight (MS-NASH mice [2]; [12]) was “significantly reduced”. The body weight (MS-NASH mice [2]; CCl4 0.08 mL/kg twice weekly 8 weeks, vs mice without CCl4) was “reduced”, the “fibrosis area by Reveal ImageDx” value (MS-NASH mice [2]; [13]) was “larger” and the “steatosis area, inflammatory cell infiltration and degenerated liver cell counts by Reveal ImageDx” value (MS-NASH mice [2]; [13]) was “no significant difference”. For the same molecule, the “elevation of serum ALT” value (MS-NASH mice [2]; [14]) was “not as dramatic”, the “elevation of serum AST” value (MS-NASH mice [2]; [14]) was “not as dramatic” and the “NAFLD progression and fibrosis development” value (MS-NASH mice [2]; MS-NASH mice fed WDF with 0.08 ml/kg CCl4) was “accelerated”. The death (MS-NASH mice [3]; high dose CCl4 (0.2 mL/kg twice weekly), within the first 3 weeks) was roughly 20%, the survival rate (MS-NASH mice [3]; lower dose CCl4 (0.08 mL/kg twice weekly), end of 8-week experimental duration) was 87.5% and the survival rate (C57B1/6 mice [4]) was “tended to be lower”. For the same molecule, the “in-life serum ALT level” value (MS-NASH mice [5]) was “significantly lower”, the “in-life serum AST level” value (MS-NASH mice [5]) was “significantly lower” and the body weight (mice model) was “severe body weight loss”.

In the case of `CC[C@H]1[C@@H](O)[C@@H]2[C@H](CC[C@]3(C)[C@@H]([C@H](C)CCC(=O)O)CC[C@@H]23)[C@@]2(C)CC[C@@H](O)C[C@@H]12` [OCA, obeticholic acid], the “serum ALT level” value (MS-NASH mice [6]) is reported as “no significant effect”, the body weight (MS-NASH mice [6]; [15]) is reported as “no significant effect” and the “serum ALT level” value (C57B1/6 mice [7]) is reported as “no significant effect”. The body weight (C57B1/6 mice [7]; [15]) was “no significant effect”.
